Experimental data reported in the NIST ThermoML archive (doi:10.1016/j.fluid.2004.09.013).

Details: for mass density: Fluid (supercritical or subcritical phases), Vibrating tube method; for vapor or sublimation pressure: Liquid

C/C=C\C [(Z)-2-butene]
Details | mass density [kg/m3]
273.24 K, 530 kPa | 644.99
273.24 K, 5019 kPa | 650.08
273.24 K, 10002 kPa | 655.33
273.24 K, 15013 kPa | 660.23
273.24 K, 19996 kPa | 664.79
273.24 K, 24988 kPa | 669.08
273.24 K, 29997 kPa | 673.15
273.24 K, 35005 kPa | 677.01
273.24 K, 39991 kPa | 680.66
278.25 K, 531 kPa | 639.3
278.25 K, 4987 kPa | 644.61
278.25 K, 10000 kPa | 650.13
278.25 K, 15004 kPa | 655.23
278.25 K, 19984 kPa | 659.97
278.25 K, 25004 kPa | 664.45
278.25 K, 30003 kPa | 668.65
278.25 K, 34993 kPa | 672.62
278.25 K, 39994 kPa | 676.39
283.26 K, 528 kPa | 633.56
283.26 K, 5005 kPa | 639.17
283.26 K, 9984 kPa | 644.91
283.26 K, 14999 kPa | 650.24
283.26 K, 19995 kPa | 655.17
283.26 K, 25010 kPa | 659.81
283.26 K, 29992 kPa | 664.14
283.26 K, 35004 kPa | 668.25
283.26 K, 39997 kPa | 672.15
288.27 K, 531 kPa | 627.75
288.27 K, 4995 kPa | 633.64
288.27 K, 10005 kPa | 639.69
288.27 K, 14999 kPa | 645.22
288.27 K, 20014 kPa | 650.37
288.27 K, 25005 kPa | 655.16
288.27 K, 29991 kPa | 659.64
288.27 K, 34992 kPa | 663.87
288.27 K, 40003 kPa | 667.9
293.28 K, 532 kPa | 621.87
293.28 K, 4990 kPa | 628.07
293.28 K, 10006 kPa | 634.4
293.28 K, 20011 kPa | 645.53
293.28 K, 25006 kPa | 650.48
293.28 K, 30000 kPa | 655.14
293.28 K, 34996 kPa | 659.52
293.28 K, 39986 kPa | 663.65
293.29 K, 14995 kPa | 640.16
298.29 K, 29993 kPa | 650.63
298.3 K, 528 kPa | 615.89
298.3 K, 5009 kPa | 622.46
298.3 K, 9991 kPa | 629.06
298.3 K, 14998 kPa | 635.11
298.3 K, 20004 kPa | 640.67
298.3 K, 24996 kPa | 645.82
298.3 K, 34987 kPa | 655.14
298.3 K, 40002 kPa | 659.43
303.31 K, 568 kPa | 609.88
303.31 K, 4986 kPa | 616.72
303.31 K, 9987 kPa | 623.69
303.31 K, 15011 kPa | 630.03
303.31 K, 20004 kPa | 635.8
303.31 K, 25003 kPa | 641.15
303.31 K, 29993 kPa | 646.12
303.31 K, 34986 kPa | 650.78
303.31 K, 40003 kPa | 655.2
308.32 K, 610 kPa | 603.77
308.32 K, 5003 kPa | 610.96
308.32 K, 9990 kPa | 618.26
308.32 K, 14985 kPa | 624.84
308.32 K, 19996 kPa | 630.86
308.32 K, 24991 kPa | 636.41
308.32 K, 29986 kPa | 641.56
308.32 K, 34983 kPa | 646.37
308.32 K, 40002 kPa | 650.92
313.2 K, 842 kPa | 598.01
313.2 K, 25002 kPa | 631.74
313.21 K, 4983 kPa | 605.15
313.21 K, 9999 kPa | 612.86
313.21 K, 14998 kPa | 619.73
313.21 K, 19993 kPa | 625.98
313.21 K, 29990 kPa | 637.05
313.21 K, 34989 kPa | 642.02
313.21 K, 39990 kPa | 646.68
318.21 K, 898 kPa | 591.77
318.21 K, 4989 kPa | 599.26
318.21 K, 9999 kPa | 607.36
318.21 K, 14989 kPa | 614.54
318.21 K, 19986 kPa | 621.05
318.21 K, 24990 kPa | 627.03
318.21 K, 30002 kPa | 632.56
318.21 K, 34994 kPa | 637.68
318.21 K, 39987 kPa | 642.47
323.21 K, 965 kPa | 585.41
323.21 K, 4984 kPa | 593.22
323.21 K, 9985 kPa | 601.76
323.21 K, 14986 kPa | 609.3
323.21 K, 20004 kPa | 616.11
323.21 K, 25000 kPa | 622.31
323.21 K, 29993 kPa | 628.01
323.21 K, 34993 kPa | 633.32
323.21 K, 40000 kPa | 638.29
328.21 K, 14983 kPa | 604.03
328.21 K, 25010 kPa | 617.59
328.21 K, 34998 kPa | 628.95
328.21 K, 40002 kPa | 634.07
328.22 K, 1031 kPa | 578.91
328.22 K, 4985 kPa | 587.11
328.22 K, 9992 kPa | 596.13
328.22 K, 19995 kPa | 611.12
328.22 K, 29991 kPa | 623.48
333.22 K, 1102 kPa | 572.28
333.22 K, 4993 kPa | 580.89
333.22 K, 10002 kPa | 590.44

Details | vapor or sublimation pressure [kPa]
290.72 K | 166.5
297.95 K | 212.17
306.92 K | 280.95
316.39 K | 369.5
326.09 K | 483.32
331.25 K | 549.64
